For series [1], the target named is hERG (Homo sapiens (Human), UniProt Q12809). In words: hERG Qpatch assay. The class given is cell-based. How it is done: Example 3. hERG Qpatch Assay Protocol
This assay was performed by the method described in Skepper et al., J. Med. Chem. 2020, 63, 7773-7816:
hERG expressing cell lines were produced in-house at Novartis using CHO-K1 T-Rex inducible plasmid system (Invitrogen) as described previously (Cao et al., Assay Drug Dev. Technol. 2010, 8, 766-780). Cell lines were maintained in Ham's F12 nutrient mixture containing 10% FBS, blasticidin ([…]; InvivoGen), hygromycin B ([…]; InvivoGen), Zeocin ([…], Invitrogen), and neomycin ([…], Invitrogen) using SelecT automated cell culture system (TAP Biosystems, Cambridge, U.K.). hERG and hCav1.2 channels expression was induced with tetracycline (0.25-1 μg/mL, Invitrogen) at least 24 h prior to the experiment.
hERG currents were recorded using the Qpatch automated patch clamp systems (Sophion Bioscience Inc., North Brunswick, NJ) in the whole (single) cell configuration. hERG expressing CHO-K1 cells were harvested with Detachin (Genlantis) and stored in the modified serum-free SFM-2 media (Life Technologies) at room temperature. The extracellular solution contained (in mM) NaCl (145), KCl (4), MgCl2 (1), CaCl2 (2), and HEPES (10), pH 7.4, with NaOH. The intracellular solution contained KCl (135), MgCl2 (1.75), CaCl2 (5.4), EGTA (10), K2-ATP (4), and HEPES (10), pH 7.2, with KOH. After whole cell configuration was achieved, the cell was held at −90 mV, and a 0.1 s pulse to −50 mV was delivered to measure the leaking current, which was subtracted from the tail current online. Then the cell was depolarized to +20 mV for 4 s (prepulse), followed by a 4 s test pulse to −50 mV to reveal the hERG tail current. To monitor changes in the current amplitude, this voltage protocol was repeatedly applied every 20 s. Test compounds were first diluted in DMSO for six dose-response experiments and then dissolved in the extracellular solution using Freedom EVO liquid handling robotic system (Tecan, Männedorf, Switzerland). The final DMSO concentration in samples was 0.3% v/v. Amitriptyline (Sigma) was tested as a positive control. Data were analyzed using in-house developed MatLab-based program (MathWorks, Natick, MA
On the technique in general: hERG is a cardiac potassium channel; its block is linked to QT prolongation.

The target of series [2] is NR2B (Rattus norvegicus (Rat), UniProt Q00960). The series is described as follows: NR2B rat cortical neuron calcium influx assay. The class given is cell-based. The note with it: for IC50: rat cortical neurons, glutamate and glycine stimulated calcium influx. A digest of the protocol: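 Primary cortical neurons from E18 Sprague Dawley rat embryos, cultured 2 days, were loaded with Calcium 6 dye in 1.8 mM Ca-HBSS and preincubated with compound 2 h at 37° C. Glutamate plus glycine was added and fluorescence read for 2 min as peak/baseline ratio; duplicate dose-response curves gave IC50 (μM) and maximal inhibition.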
NR2B, sequence (Q00960 27-1482, other chains not shown): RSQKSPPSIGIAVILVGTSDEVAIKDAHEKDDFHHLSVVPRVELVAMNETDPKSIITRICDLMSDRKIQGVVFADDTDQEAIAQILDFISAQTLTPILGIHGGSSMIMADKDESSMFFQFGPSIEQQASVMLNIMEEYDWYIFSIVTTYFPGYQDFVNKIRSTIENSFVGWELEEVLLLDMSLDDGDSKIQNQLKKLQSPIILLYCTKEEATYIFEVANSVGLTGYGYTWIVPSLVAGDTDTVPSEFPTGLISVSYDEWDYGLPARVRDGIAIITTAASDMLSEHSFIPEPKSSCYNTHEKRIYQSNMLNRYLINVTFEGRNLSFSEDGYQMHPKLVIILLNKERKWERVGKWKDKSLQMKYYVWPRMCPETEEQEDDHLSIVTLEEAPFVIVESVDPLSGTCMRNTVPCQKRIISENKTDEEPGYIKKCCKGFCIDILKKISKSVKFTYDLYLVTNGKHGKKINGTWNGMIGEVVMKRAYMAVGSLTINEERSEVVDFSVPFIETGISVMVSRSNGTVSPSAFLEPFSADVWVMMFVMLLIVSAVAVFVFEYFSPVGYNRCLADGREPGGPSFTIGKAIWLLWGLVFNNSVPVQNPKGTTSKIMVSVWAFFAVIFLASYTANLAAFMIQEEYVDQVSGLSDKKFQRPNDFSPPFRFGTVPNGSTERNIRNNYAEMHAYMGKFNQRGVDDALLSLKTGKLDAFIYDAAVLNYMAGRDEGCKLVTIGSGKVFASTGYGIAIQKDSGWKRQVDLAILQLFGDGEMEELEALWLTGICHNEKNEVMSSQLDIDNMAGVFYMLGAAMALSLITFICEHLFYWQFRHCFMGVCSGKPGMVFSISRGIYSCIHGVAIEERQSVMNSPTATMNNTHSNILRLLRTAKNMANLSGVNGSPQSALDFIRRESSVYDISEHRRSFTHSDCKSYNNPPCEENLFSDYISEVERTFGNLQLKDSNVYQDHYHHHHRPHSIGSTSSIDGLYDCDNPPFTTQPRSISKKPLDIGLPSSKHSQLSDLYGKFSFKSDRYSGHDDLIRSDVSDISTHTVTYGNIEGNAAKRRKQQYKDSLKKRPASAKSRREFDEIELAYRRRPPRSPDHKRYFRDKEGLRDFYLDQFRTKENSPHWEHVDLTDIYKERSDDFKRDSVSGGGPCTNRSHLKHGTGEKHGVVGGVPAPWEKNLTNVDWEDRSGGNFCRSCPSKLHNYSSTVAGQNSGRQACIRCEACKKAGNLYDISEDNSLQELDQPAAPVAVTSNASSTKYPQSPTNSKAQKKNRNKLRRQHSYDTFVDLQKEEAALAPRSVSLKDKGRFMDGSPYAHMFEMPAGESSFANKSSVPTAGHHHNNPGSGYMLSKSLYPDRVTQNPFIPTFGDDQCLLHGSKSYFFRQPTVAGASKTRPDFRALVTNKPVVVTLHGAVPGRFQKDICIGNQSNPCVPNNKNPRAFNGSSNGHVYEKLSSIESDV

The target of series [3] is P-glycoprotein (P-gp) (Homo sapiens (Human), UniProt P08183). In words: MDCK-MDR1 permeability / efflux assay. The class given is in vitro ADME. The note with it: for efflux ratio at 120 min, 10 μM: dog, MDCK-MDR1, pH 7.4, efflux ratio, read-out: MDCK-MDR1 ER. As to the method: Example 4. Experimental Measurement of Efflux with MDCK-MDR1 Protocol
P-glycoprotein (P-gp), sequence (P08183 whole entry): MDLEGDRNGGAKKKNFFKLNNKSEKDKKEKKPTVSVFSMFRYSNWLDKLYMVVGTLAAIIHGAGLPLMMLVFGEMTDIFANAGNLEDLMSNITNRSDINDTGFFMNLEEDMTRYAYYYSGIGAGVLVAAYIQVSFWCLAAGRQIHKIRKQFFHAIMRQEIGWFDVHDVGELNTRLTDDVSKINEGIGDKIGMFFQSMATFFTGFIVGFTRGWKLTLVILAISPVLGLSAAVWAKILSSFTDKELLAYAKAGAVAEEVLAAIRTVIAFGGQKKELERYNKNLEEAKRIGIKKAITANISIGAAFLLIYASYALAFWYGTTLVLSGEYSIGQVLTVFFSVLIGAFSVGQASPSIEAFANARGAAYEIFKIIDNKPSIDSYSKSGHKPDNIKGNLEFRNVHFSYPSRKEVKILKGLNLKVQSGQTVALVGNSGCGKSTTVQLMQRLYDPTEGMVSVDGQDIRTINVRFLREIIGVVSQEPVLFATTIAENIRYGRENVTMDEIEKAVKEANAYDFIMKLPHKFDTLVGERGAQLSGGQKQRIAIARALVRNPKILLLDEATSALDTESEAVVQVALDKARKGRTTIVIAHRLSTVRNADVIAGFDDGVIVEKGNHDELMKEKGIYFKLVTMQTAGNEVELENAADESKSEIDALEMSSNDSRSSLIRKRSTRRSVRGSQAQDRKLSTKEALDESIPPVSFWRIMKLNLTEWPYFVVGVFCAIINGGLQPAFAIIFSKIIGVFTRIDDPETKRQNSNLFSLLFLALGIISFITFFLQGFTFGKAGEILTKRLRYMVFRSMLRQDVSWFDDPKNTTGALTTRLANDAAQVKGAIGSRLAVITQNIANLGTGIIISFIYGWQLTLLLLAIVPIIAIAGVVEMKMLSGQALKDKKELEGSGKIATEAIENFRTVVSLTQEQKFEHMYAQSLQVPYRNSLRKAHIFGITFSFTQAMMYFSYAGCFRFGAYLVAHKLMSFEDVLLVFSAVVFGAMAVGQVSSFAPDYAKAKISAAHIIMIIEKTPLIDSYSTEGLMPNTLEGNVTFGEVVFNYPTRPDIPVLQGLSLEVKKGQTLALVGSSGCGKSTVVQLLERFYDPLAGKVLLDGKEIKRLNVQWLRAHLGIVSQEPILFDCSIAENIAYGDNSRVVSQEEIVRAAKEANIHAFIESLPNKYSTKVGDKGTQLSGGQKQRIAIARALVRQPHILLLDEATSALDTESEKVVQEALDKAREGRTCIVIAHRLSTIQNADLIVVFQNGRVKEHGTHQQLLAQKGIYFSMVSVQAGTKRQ
Cell Culture. MDCK-MDR1 cells were cultured at 37° C. under a 5% CO2 atmosphere, at 95% relative humidity in DMEM containing 10% FBS, penicillin-streptomycin (100 μg/mL), and 2 mM Ala-Gln. Cells were passaged every 3-4 days. For assay purposes, cells were seeded at a density of approximately 265,000 cells/cm^2 of a 96-well Transwell plate (Corning Life Sciences, Acton, MA) and cultured in the same media noted above for a period of 4 days.
Assay. The determination of the apparent permeability (Papp) was performed in both the A→B (apical to basal) and B→A (basal to apical) directions where each compound was assayed in triplicate. The zwitterion bestatin, a poorly permeably compound, was used as marker of monolayer integrity. To initiate the assay, media was aspirated, and the cells and basal chambers were washed three times with Hank's Balanced Salt Solution (HBSS) containing 10 mM HEPES (pH 7.4). Compound test solutions were prepared in triplicate in HBSS containing 10 mM HEPES (pH 7.4) and 0.02% bovine serum albumin (BSA) to a final concentration of 10 μM and centrifuged for 2 min at 4000×g, then applied to the donor compartment at time zero. Additionally, at time zero, a 37° C. solution without test articles (HBSS+10 mM HEPES (pH 7.4) plus 0.02% BSA) was added to the receiver chamber of the Transwell plate. A time zero sample of the donor solution was also sampled for further analysis. The assay was conducted for a period of 120 min at 37° C. without shaking. At the time of assay termination, samples were taken from each donor compartment, and each acceptor compartment of the Transwell plate. To each of the 0 and 120 min samples was added an internal standard solution containing glyburide in water:acetonitrile, 50:50 (v:v). Concentration curves were prepared using a Labcyte Echo in the same matrix noted above. Samples and concentration curve samples were centrifuged for 10 min at 4000×g and subsequently analyzed by mass spectroscopy.
Mass Spectroscopy. Assay samples were loaded onto a RapidFire C4 cartridge by means of a RapidFire autosampler (Agilent, Santa Clara, CA). […] Mass spectroscopy was performed using an AB Sciex AP15500 (Sciex, Frammingham, MA) equipped with a turbo ion spray source. The analyte concentration was calculated from the chromatographic peak area ratio of analyte to internal standard (glibenclamide, m/z 494→169), using Multiquant software V3.0 (Sciex, Framingham, MA).
Calculations. Papp values were determined as
Percent recovery values were determined as:
where VA is the volume of the acceptor (mL), S is the surface area of the membrane, D0 is the donor solution concentration at t=0, D120 is the donor solution concentration at t=120, A120 is the acceptor solution concentration at t=120, and t=time (seconds).
The suitability of a compound for oral dosing and/or for use as a CNS therapeutic is usually conducted by MDCK-MDR1 permeability assay to investigate its drug efflux potential mediated by P-glycoprotein (P-gp). MDCK-MDR1 permeability has been used as a predictor of blood brain barrier permeability in terms of efflux ratio (ER).

Where [4] appears, read: Table 2, hERG expressing CHO-K1 cells.

hERG, sequence (Q12809 whole entry): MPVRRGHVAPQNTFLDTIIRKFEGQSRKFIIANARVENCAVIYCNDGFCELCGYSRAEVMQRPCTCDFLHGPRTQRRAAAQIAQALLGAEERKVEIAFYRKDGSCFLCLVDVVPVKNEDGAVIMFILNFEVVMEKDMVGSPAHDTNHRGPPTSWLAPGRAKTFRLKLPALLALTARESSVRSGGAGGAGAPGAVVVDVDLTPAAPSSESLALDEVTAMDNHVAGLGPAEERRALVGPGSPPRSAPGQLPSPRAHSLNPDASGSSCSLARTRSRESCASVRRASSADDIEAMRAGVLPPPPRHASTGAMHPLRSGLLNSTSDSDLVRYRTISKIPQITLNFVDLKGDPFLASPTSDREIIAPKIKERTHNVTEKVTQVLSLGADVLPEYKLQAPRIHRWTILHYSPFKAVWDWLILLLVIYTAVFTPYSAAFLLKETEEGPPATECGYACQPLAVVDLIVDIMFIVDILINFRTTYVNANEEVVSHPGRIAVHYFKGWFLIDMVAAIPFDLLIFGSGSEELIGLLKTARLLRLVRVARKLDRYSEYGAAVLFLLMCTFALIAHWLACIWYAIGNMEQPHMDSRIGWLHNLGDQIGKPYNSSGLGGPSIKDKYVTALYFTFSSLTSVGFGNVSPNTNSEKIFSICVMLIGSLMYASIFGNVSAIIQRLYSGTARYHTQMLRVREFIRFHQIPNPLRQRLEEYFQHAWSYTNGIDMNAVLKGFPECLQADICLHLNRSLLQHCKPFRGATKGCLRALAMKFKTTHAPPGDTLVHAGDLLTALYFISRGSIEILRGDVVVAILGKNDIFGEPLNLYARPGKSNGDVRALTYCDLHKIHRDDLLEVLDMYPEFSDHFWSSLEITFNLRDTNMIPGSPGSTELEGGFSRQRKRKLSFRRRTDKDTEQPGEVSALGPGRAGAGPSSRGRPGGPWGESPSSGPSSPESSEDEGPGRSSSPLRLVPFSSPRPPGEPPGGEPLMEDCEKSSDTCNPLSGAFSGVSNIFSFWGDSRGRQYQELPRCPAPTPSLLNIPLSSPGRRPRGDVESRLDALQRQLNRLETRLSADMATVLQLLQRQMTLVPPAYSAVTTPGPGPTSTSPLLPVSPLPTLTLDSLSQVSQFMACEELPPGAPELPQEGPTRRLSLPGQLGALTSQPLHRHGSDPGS

For orientation: IC50 means the concentration at which inhibition is half-maximal. The compound `O=C1CCc2cc(C(O)CN3C[C@H]4C[C@H](Oc5ccccc5F)C[C@H]4C3)ccc2N1` (mixture of isomers) [Mixture of two isomers at benzylic position, reference compound] displayed an IC50 in series [1] (Table 3, matched pairs) of 500 nM.
With `O=C1CCc2cc(C(O)CN3C[C@H]4C[C@H](Oc5ccccc5F)C[C@@]4(O)C3)ccc2N1` (single isomer, unassigned) [Example 5D], the “relative potency in the NR2B rat cortical neuron calcium influx assay” value in series [2] (comparison within Examples 5A/5B/5C/5D) was “more potent than Examples 5A and 5B”. Further, the IC50 in series [2] was 0.61 nM; in series [1] (setting [4]) it was 5900 nM; in series [1] (Table 3, matched pairs), 5900 nM. In addition, the “MDCK-MDR1 ER” value in series [3] (efflux ratio, 10 μM, 120 min) amounted to 1.93.
With `O=C1CCCc2cc([C@H](O)CN3C[C@H]4C[C@H](Oc5ccccc5)C[C@@]4(O)C3)ccc2N1` (single isomer, unassigned) [Example 7B], the values for the IC50 in series [2] and in series [1] (setting [4]) were 1.9 nM and 15200 nM, respectively. Also, the efflux ratio at 120 min, 10 μM in series [3] came out at 2.07.
`O=c1ccc2cc([C@@H](O)CN3C[C@H]4C[C@H](Oc5ccccc5)C[C@@]4(O)C3)ccc2[nH]1` (single isomer, unassigned) [Example 8A]: the results for the IC50 in series [2] and in series [1] (setting [4]) were 0.8 nM and 2800 nM, respectively. Also, the efflux ratio at 120 min, 10 μM in series [3] came out at 3.68.
Consider `O=C1CCc2cc([C@@H](O)CN3C[C@H]4C[C@H](Oc5ccccc5)C[C@@]4(O)C3)c(F)cc2N1` (single isomer, unassigned) [Example 10A], for which the IC50 in series [2] came out at 0.41 nM; in series [1] (setting [4]), 2100 nM. The efflux ratio at 120 min, 10 μM in series [3] turned out to be 1.11.
For `O=C1Nc2ccc([C@H](O)CN3C[C@H]4C[C@H](Oc5ccccc5)C[C@@]4(O)C3)cc2CS1` (single isomer, unassigned) [Example 14B], the IC50 is 0.18 nM in series [2] and 1300 nM in series [1] (setting [4]). For the same compound, the efflux ratio at 120 min, 10 μM in series [3] stood at 2.06.
`O=C1Nc2c(F)cc([C@@H](O)CN3C[C@H]4C[C@H](Oc5ccccc5)C[C@@]4(O)C3)cc2CS1` (single isomer, unassigned) [Example 16A]: the IC50 in series [2] was 0.051 nM; in series [1] (setting [4]), 400 nM. In series [3], the efflux ratio at 120 min, 10 μM amounted to 0.66.
Take `O=C1Nc2c(F)cc([C@H](O)CN3C[C@H]4C[C@H](Oc5ccccc5)C[C@@]4(O)C3)cc2CS1` (single isomer, unassigned) [Example 16B]: the IC50 in series [2] worked out at 0.08 nM; in series [1] (setting [4]) it was 200 nM. Also, in series [3], the efflux ratio at 120 min, 10 μM stood at 0.75.
On to `O=c1[nH]c2ccc([C@@H](O)CN3C[C@H]4C[C@H](Oc5ccccc5)C[C@@]4(O)C3)cc2s1` (single isomer, unassigned) [Example 17A], for which the IC50 in series [2] was 0.013 nM; in series [1] (setting [4]), 200 nM. In series [3], the efflux ratio at 120 min, 10 μM came to 1.11.
For `O=c1[nH]c2ccc([C@H](O)CN3C[C@H]4C[C@H](Oc5ccccc5F)C[C@@]4(O)C3)cc2s1` (single isomer, unassigned) [Example 18B], the IC50 in series [2] came to 0.012 nM; in series [1] (setting [4]), 1200 nM.
For the compound `O=C1CCc2cc([C@@H](O)CN3C[C@@H]4C[C@@H](Oc5cccc(F)c5F)C[C@]4(O)C3)ccc2N1` (single isomer, unassigned) [Example 24C], the IC50 in series [2] is 0.021 nM; in series [1] (setting [4]), 1200 nM. In series [3], the efflux ratio at 120 min, 10 μM came out at 1.46.
`O=C1CCc2cc([C@H](O)CN3C[C@H]4C[C@H](Oc5ccccc5)C[C@@]4(O)C3)cc(F)c2N1` (single isomer, unassigned) [Example 31B]: the IC50 in series [2] was 4.8 nM; in series [1] (setting [4]), 3900 nM.
For `O=C1CCc2cc([C@@H](O)CN3C[C@H]4C[C@H](Oc5ccccc5F)C[C@@]4(O)C3)ccc2N1` [Example 5A, 6-((R)-2-((3aS,5S,6aR)-5-(2-fluorophenoxy)-3a-hydroxyhexahydrocyclopenta[c]pyrrol-2(1H)-yl)-1-hydroxyethyl)-3,4-dihydroquinolin-2(1H)-one], in series [2], the IC50 was determined as 38 nM. In addition, in series [3], the efflux ratio at 120 min, 10 μM was 1.05.

The record behind these values is patent publication US20240208953A1, “"Cyclopenta[c]pyrrol Negative Allosteric Modulators of NR2B"” (Novartis AG, priority 2021, published 2024).
